Assay results as given in ChEMBL document CHEMBL3045875, “Design, synthesis, and biological evaluation studies of novel quinazolinone derivatives as anticonvulsant agents” (Med Chem Res, 2013).

Experiments:
Mus musculus [1] = experiment: Anticonvulsant activity in Swiss albino Mus musculus (mouse) assessed as protection against PTZ-induced seizures at 0.5 mmol/kg, i.p. administered 30 min prior to PTZ-challenge relative to control; type: functional
Mus musculus [2] = experiment: Anticonvulsant activity in Swiss albino Mus musculus (mouse) assessed as protection against Maximal electric shock-induced seizures at 0.5 mmol/kg, ip administered 30 min prior to electric shock-challenge relative to control; type: functional
[3] = Therapeutic index, ratio of LD50 to ED50 in Swiss albino Mus musculus (mouse); type: organism-based; conditions: in vivo, read-out: Ratio LD50/ED50
[4] = Toxicity in ip dosed Swiss albino Mus musculus (mouse) assessed as mortality; type: organism-based; conditions: in vivo
Mus musculus [5] = species: Mus musculus; experiment: Protective index, ratio of TD50 to ED50 in Swiss albino Mus musculus (mouse)
[6] = Neurotoxicity in ip dosed Swiss albino Mus musculus (mouse) after 4 hr by rotarod test; type: toxicity, organism-based; conditions: in vivo
Mus musculus [7] = experiment: Anticonvulsant activity in ip dosed Swiss albino Mus musculus (mouse) assessed as protection against PTZ-induced seizures administered 30 min prior to PTZ-challenge; type: functional
Mus musculus [8] = experiment: Anticonvulsant activity in Swiss albino Mus musculus (mouse) assessed as protection against Maximal electric shock-induced seizures at 0.8 mmol/kg, ip administered 30 min prior to electric shock-challenge relative to control; type: functional
Mus musculus [9] = experiment: Anticonvulsant activity in Swiss albino Mus musculus (mouse) assessed as protection against PTZ-induced seizures at 0.8 mmol/kg, i.p. administered 30 min prior to PTZ-challenge relative to control; type: functional
Mus musculus [10] = experiment: Anticonvulsant activity in Swiss albino Mus musculus (mouse) assessed as protection against PTZ-induced seizures at 1.8 mmol/kg, i.p. administered 30 min prior to PTZ-challenge relative to control; type: functional
Mus musculus [11] = experiment: Anticonvulsant activity in Swiss albino Mus musculus (mouse) assessed as protection against Maximal electric shock-induced seizures at 1.8 mmol/kg, ip administered 30 min prior to electric shock-challenge relative to control; type: functional

SMILES | Activity (Mus musculus [1]) [%] | Activity (Mus musculus [2]) [%] | TD50 at 4 h [6] [mg/kg] | ED50 (Mus musculus [7]) [mg/kg] | other results
COc1ccc(Cn2c(C)nc3c(I)cc(I)cc3c2=O)cc1 | 66 | 33 |  |  | 
Cc1ccc(Cn2c(C)nc3c(I)cc(I)cc3c2=O)cc1 | 50 | 33 |  |  | 
Cc1nc2c(I)cc(I)cc2c(=O)n1Cc1cccc(C(F)(F)F)c1 | 50 | 33 |  |  | 
Cc1nc2c(I)cc(I)cc2c(=O)n1Cc1cccc(Cl)c1 | 100 | 66 |  |  | 
Cc1nc2c(I)cc(I)cc2c(=O)n1Cc1ccc(Cl)c(Cl)c1 | 66 | 66 |  |  | 
Cc1nc2ccccc2c(=O)n1Cc1ccc(Br)cc1 | 66 | 66 |  |  | 
Cc1nc2ccc(I)cc2c(=O)n1Cc1ccc(Br)cc1 | 66 | 66 |  |  | 
Cc1nc2c(I)cc(I)cc2c(=O)n1-c1ccc(Br)cc1 | 100 | 66 |  |  | 
Cc1nc2c(I)cc(I)cc2c(=O)n1Cc1ccccc1 | 66 | 50 |  |  | 
Cc1nc2c(I)cc(I)cc2c(=O)n1Cc1ccc(Cl)cc1 | 100 | 100 | 280 | 150 | selectivity ratio [3]: 4; LD50 [4]: 600 mg/kg; Ratio TD50/ED50 (Mus musculus [5]): 1.87
Cc1nc2c(I)cc(I)cc2c(=O)n1Cc1ccc(F)cc1 | 100 | 100 | 360 | 160 | selectivity ratio [3]: 2.62; LD50 [4]: 420 mg/kg; Ratio TD50/ED50 (Mus musculus [5]): 2.25
Cc1nc2c(I)cc(I)cc2c(=O)n1Cc1ccc(I)cc1 | 66 | 66 |  |  | 
Cc1nc2c(I)cc(I)cc2c(=O)n1Cc1ccc(Br)cc1 | 100 | 100 | 330 | 138 | selectivity ratio [3]: 4.09; LD50 [4]: 565 mg/kg; Ratio TD50/ED50 (Mus musculus [5]): 2.39
Cc1nc2c(I)cc(I)cc2c(=O)n1Cc1cccc([N+](=O)[O-])c1 | 100 | 66 |  |  | 
Cc1ccccc1-n1c(C)nc2ccccc2c1=O [METHAQUALONE] |  |  | 400 | 200 | Activity (Mus musculus [8]): 100%; Ratio TD50/ED50 (Mus musculus [5]): 2; Activity (Mus musculus [9]): 100%
CCCC(CCC)C(=O)[O-].[Na+] [VALPROATE SODIUM] |  |  | 450 | 300 | Activity (Mus musculus [10]): 100%; Activity (Mus musculus [11]): 100%
